Laboratory results as given in patent US8946224B2, “Substituted [1,2,4]triazolo[4,3-A]pyrazines for medicaments and pharmaceutical compositions” (Redx Pharma Limited, priority 2010, dated 2015).
In brackets after ≈: the same amount, converted by molar mass. Several values for one entry are separate records, joined by “and”; a condition that tells them apart may be missing. Equal values may be shown once. Read-outs that look alike come from different tables or passages of the source. Non-standard residues stand in square brackets, D forms with d. Residues, ends and D or L forms follow the SMILES beside them. Sta = CC(C)C[C@H](N)[C@@H](O)CC(=O)O

What was measured:
plasma triglycerides = assay: Rat plasma triglyceride levels after 3 or 5 days BID treatment; type: in vivo; settings: 25 mg/kg po BID for 3 or 5 days, 16 hours after the last dose
Experimental: The efficacy of particular rosuvastatin compounds was then determined in vivo.
112 male SD rats (Harlan) were housed in groups of 6 under a 12 h light dark cycle (lights on 07.00 h) with free access to food (normal laboratory chow) and water. Animals between 148-183 g were allocated to treatment groups of 8 balanced by body weight and treatments were balanced across cages.
The rosuvastatin analogues were made up in 10% PEG300/10% cremophor/80% methyl cellulose (0.5%) (vehicle 1) to make a 5 mg/mL solution. The rosuvastatin compounds used were:
Rosuvastatin was formulated in 0.5% Tween in 0.5% methyl cellulose (vehicle 2) at 5 mg/kg as a suspension.
Rats were orally dosed with vehicle 1, one of the rosuvastatin analogues in vehicle 1 (25 mg/kg), vehicle 2 or rosuvastatin in vehicle 2 (25 mg/kg po), BID for 3 or 5 days.
Sixteen hours after the last treatment, terminal plasma samples were taken, stored at −20° C., and transported on dry ice for analysis of triglyceride levels.
Data for each time-point were analysed by 1-way ANOVA and post-hoc Dunnett's test.

DPPIV = DPPIV (Homo sapiens, UniProt P27487); assay: DPPIV protease inhibition, substrate Gly-Pro-AMC (Example 97); type: biochemical
Chain of DPPIV (P27487 whole entry, species assumed): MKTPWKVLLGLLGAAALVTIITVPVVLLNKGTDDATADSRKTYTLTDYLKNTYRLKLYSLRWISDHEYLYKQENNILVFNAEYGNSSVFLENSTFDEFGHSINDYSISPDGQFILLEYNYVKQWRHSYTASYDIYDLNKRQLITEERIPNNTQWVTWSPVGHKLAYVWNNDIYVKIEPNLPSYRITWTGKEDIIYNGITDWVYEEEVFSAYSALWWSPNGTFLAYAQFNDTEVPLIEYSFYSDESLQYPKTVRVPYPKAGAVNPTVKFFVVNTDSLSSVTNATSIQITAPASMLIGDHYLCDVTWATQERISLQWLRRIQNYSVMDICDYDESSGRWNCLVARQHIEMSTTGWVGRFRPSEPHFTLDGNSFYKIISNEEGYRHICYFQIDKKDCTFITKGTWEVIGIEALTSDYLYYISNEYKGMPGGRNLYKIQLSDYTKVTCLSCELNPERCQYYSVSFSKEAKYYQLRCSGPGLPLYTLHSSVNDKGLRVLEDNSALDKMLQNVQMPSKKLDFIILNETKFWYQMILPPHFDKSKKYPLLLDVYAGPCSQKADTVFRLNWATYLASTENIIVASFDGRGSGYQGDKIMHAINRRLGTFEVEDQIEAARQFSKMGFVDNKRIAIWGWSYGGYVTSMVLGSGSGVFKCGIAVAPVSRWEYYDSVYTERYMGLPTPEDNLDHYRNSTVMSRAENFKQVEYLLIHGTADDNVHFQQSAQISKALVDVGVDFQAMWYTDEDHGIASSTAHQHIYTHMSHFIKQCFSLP
Experimental: (§1) The solutions of the compounds to be tested were prepared in DMSO at a concentration of 10 mM, divided into aliquots and stored at −20° C. The stock solutions were further diluted with assay buffer to make final test solutions. All the final test solutions contained no more than 2.0% DMSO.
(§2) Data were recorded by PHEARstar^PLUS.
(§3) Each assay was repeated for each compound 10 times.

[1] = test system: PathHunter NHRPro cell lines; assay: PathHunter NHRPro cell assay, agonist format (Examples 90-92); type: cell-based; settings: RARβ, NHR Protein Interaction; for EC50: read-out: RC50 (EC50); for Emax: read-out: Max Response
Experimental: Methodology for Examples 90-92 Cell Handling
PathHunter NHRPro cell lines were expanded from freezer stocks in T25 flasks according to standard procedures and maintained in selective growth media prior to assay.
Once it was established that the cells were healthy and growing normally, cells were passaged from flasks using cell dissociation reagent and seeded into white walled clear bottom 384-well microplates for compound profiling.
For profiling, cells were seeded at a density of 10000 cells per well in a total volume of 20 μL and were allowed to adhere and recover overnight prior to compound addition. Media contained charcoal-dextran filtered serum to reduce the level of hormones present.
Intermediate dilution of compound stocks were generated such that 5 μL of 5× compound could be added to each well with a final DMSO concentration of 1% of total volume.
For profiling compound in agonist mode, the cells were incubated in the presence of compound at 37° C. for 5 hours.
After appropriate compound incubation, assay signal was generated through a single addition of 15 μL (50% v/v) of PathHunter Detection reagent cocktail for agonist and antagonist assays respectively followed by one hour incubation at room temperature.
Microplates were read following signal generation with a PerkinElmer Envision™ instrument for chemiluminescent signal detection.
Dose curves in the presence and absence of compound were plotted using GraphPad Prism or Activity Base.
For the agonist mode, percentage activity was calculated using the following formula: % Activity=100%×(Mean RLU of test sample−mean RLU of vehicle control)/(mean MAX RLU control ligand−mean RLU of vehicle control).

[2] = test system: anaerobic bacterial strains; assay: microbe, parasite or virus in culture; type: cell-based, bacteria; settings: read-out: MIC (>90%)
[3] = target: neuraminidase of oseltamivir-sensitive influenza virus (UniProt P03468); type: biochemical
Chain of neuraminidase of oseltamivir-sensitive influenza virus (P03468 whole entry, looked up): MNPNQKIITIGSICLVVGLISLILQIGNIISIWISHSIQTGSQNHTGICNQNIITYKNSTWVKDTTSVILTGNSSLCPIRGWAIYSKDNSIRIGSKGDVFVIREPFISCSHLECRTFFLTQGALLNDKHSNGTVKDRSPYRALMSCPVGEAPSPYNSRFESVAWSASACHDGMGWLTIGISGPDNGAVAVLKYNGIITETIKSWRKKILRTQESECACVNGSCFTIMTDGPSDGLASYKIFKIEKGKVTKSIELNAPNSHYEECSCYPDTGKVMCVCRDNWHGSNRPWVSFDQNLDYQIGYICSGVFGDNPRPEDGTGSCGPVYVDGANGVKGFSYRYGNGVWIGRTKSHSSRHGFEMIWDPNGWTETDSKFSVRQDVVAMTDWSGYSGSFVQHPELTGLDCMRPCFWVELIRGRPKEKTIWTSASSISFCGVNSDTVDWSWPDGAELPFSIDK

HepG2 cells = assay: HepG2 cytotoxicity, MTT, 72 hours (Examples 93-95); type: cell-based; settings: Cell Loss, Example 94, dosed 0.02-50 μM
Experimental: Methodology for Examples 93-95
A number of analogues were tested for their ability to kill cancer cells.
HepG2 cells were plated on 96-well tissue culture treated polystyrene plates at 0.5×10^4 cells in 100 μL per well. After 24 hr the cells are dosed with test compound at a range of concentrations and incubated for 72 hours. One hour prior to the end of the incubation period, the cells are loaded with MU [yellow; 3-(4,5-dimethyl-2-thiazolyl)-2,5-diphenyl-2H-tetrazolium bromide], the plates are dried and re-solubilised using DMSO. The plates are then scanned using SpectraFluor Plus (TECAN).
Cytotoxicity was assessed using MU. The assay provides a measurement of mitochondrial dehydrogenase activity and cell loss.
A decrease can indicate a loss of cells indicating toxicity due to necrosis, apoptosis or a reduction in cellular proliferation.
A decrease can also indicate an effect on mitochondrial function as mitochondrial dehydrogenasesreduce the MTT [yellow; 3-(4,5-dimethyl-2-thiazolyl)-2,5-diphenyl-2H-tetrazolium bromide] to formazan. The formazan is detected in this assay.
The cells were dosed at concentrations of 0.04, 0.1, 0.4, 1, 4, 10, 40 and 100 μM. The assay was repeated three times at each concentration.
AC50=The concentration at which 50% maximum effect is observed for each cell health parameter.
The cells were dosed at concentrations of 0.02, 0.05, 0.2, 0.5, 2, 5, 20 and 50 μM. The assay was repeated three times at each concentration.
The cells were dosed at concentrations of 0.04, 0.1, 0.4, 1, 4, 10, 40 and 100 μM for bexarotene and the compound of formula 102 when Z is CH═NOH (compound 13a). The cells were dosed at concentrations of 0.02, 0.05, 0.2, 0.5, 2, 5, 20 and 50 μM for the compound of formula 102 when Z is CH═NOMe (compound 13b). The assay was repeated three times at each concentration.

renin = target: T1, renin (Homo sapiens, UniProt P00797); assay: Renin inhibition (Comparative Example 98); type: biochemical
T1 sequence (P00797 67-406): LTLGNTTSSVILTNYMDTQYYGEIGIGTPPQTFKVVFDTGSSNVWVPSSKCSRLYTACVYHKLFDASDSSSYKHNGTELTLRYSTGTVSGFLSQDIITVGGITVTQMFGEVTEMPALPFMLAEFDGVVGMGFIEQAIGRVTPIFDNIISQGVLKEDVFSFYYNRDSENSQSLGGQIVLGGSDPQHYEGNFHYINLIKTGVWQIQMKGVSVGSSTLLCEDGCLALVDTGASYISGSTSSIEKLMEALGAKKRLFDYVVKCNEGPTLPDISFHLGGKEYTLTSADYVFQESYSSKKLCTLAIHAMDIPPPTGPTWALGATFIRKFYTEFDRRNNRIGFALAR
Experimental: as §1, §2, §3

[4] = test system: PathHunter NHRPro cell lines; assay: PathHunter NHRPro cell assay, agonist format (Examples 90-92); type: cell-based; settings: for EC50: read-out: RC50 (EC50)
[5] = Bacteroides fragilis, ATCC25293, 48 h
[6] = Prevotella melaninogenica, ATCC25845, 48 h

Molecule: COC1C[C@H](OC(=O)c2cccnc2)C[C@@H](/C=C/c2c(-c3ccc(F)cc3)nc(N(C)S(C)(=O)=O)nc2C(C)C)O1 (stereo partly shown)
- In vivo (plasma triglycerides) (plasma triglycerides): Reduction in plasma triglycerides

Molecule: CC(C)OC1C[C@H](OCc2ccccc2)C[C@@H](/C=C/c2c(-c3ccc(F)cc3)nc(N(C)S(C)(=O)=O)nc2C(C)C)O1 (stereo partly shown)
- In vivo (plasma triglycerides) (plasma triglycerides): Reduction in plasma triglycerides

Molecule: CON=C(CC(=O)N1CCn2c(nnc2C(F)(F)F)C1)Cc1cc(F)c(F)cc1F (mixture of isomers) [Compound 24b, 3-(Methoxyimino)-1-(3-(trifluoromethyl)-5,6-dihydro-[1,2,4]triazolo[4,3-a]pyrazin-7(8H)-yl)-4-(2,4,5-trifluorophenyl)butan-1-one]
- Activity as inhibitor of DPPIV (in words) (DPPIV): did not exhibit significant activity

Molecule: CC1=C(/C=C/C(C)=C\C=C\C(C)=C\C(=O)O)C(C)(C)CCC1 [9 Cis Retanoic acid]
- Max Response [1]: 87.826 and 98.978
- EC50 [1]: 5.04 nM and 7.14 nM

Molecule: COc1ccc(-c2ccc3cc(C(=O)O)ccc3c2)cc1C12CC3CC(CC(C3)C1)C2 [Adapalene]
- Emax [1]: 147%
- EC50 [1]: 1.8 nM

Molecule: COC(Cn1c([N+](=O)[O-])cnc1C)OC [Compound 3a, 1-(2,2-Dimethoxyethyl)-2-methyl-5-nitro-1H-imidazole]
- MIC [2, 5]: 0.5 µg/mL (≈ 2.32 µM)
- MIC ([2]; Clostridioides difficile, 48 h): ≤ 0.25 µg/mL
- MIC ([2]; Clostridium perfringens, 48 h): 1 µg/mL (≈ 4.65 µM)
- MIC [2, 6]: 0.5 µg/mL (≈ 2.32 µM)

Molecule: CON=CCn1c([N+](=O)[O-])cnc1C [Compound 3b, 2-(2-Methyl-5-nitro-1H-imidazol-1-yl)acetaldehyde O-methyl oxime]
- MIC [2, 5]: 0.5 µg/mL (≈ 2.52 µM)
- MIC ([2]; Clostridioides difficile, 48 h): ≤ 0.25 µg/mL
- MIC ([2]; Clostridium perfringens, 48 h): 1 µg/mL (≈ 5.05 µM)
- MIC [2, 6]: 0.5 µg/mL (≈ 2.52 µM)

Molecule: COc1ccc(-c2ccc3cc(C=NO)ccc3c2)cc1C12CC3CC(CC(C3)C1)C2 [Compound 5a, 6-(3-(Adamantan-1-yl)-4-methoxyphenyl)-2-naphthaldehyde oxime]
- Emax [1]: 45.1%
- EC50 [1]: 1270 nM

Molecule: CON=Cc1ccc2cc(-c3ccc(OC)c(C45CC6CC(CC(C6)C4)C5)c3)ccc2c1 [Compound 5b, 6-(3-(Adamantan-1-yl)-4-methoxyphenyl)-2-naphthaldehyde O-methyl oxime]
- Emax [1]: 81.1%
- EC50 [1]: 830 nM

Molecule: N[C@@H](CCN1CCn2c(nnc2C(F)(F)F)C1)Cc1cc(F)c(F)cc1F [Compound 24a, (R)-4-(3-(Trifluoromethyl)-5,6-dihydro-[1,2,4]triazolo[4,3-a]pyrazin-7(8H)-yl)-1-(2,4,5-trifluorophenyl)butan-2-amine]
- Activity as inhibitor of DPPIV (in words) (DPPIV): showed an activity
- IC50 (DPPIV; DPPIV, substrate Gly-Pro-AMC): 81.3 nM

Molecule: COc1ccc(-c2ccc3cc(C=O)ccc3c2)cc1C12CC3CC(CC(C3)C1)C2 [Formula 135; Z is C(O)H]
- Max Response [1]: 115.93
- EC50 [1]: 142 nM

Molecule: COc1ccc(-c2ccc3cc(CO)ccc3c2)cc1C12CC3CC(CC(C3)C1)C2 [Formula 135; Z is CH2OH]
- Max Response [1]: 131.9
- EC50 [1]: 199 nM

Molecule: Cc1ncc([N+](=O)[O-])n1CCO [Metronidazole, metronidazole, reference compound]
- MIC [2, 5]: 0.25 µg/mL (≈ 1.46 µM)
- MIC ([2]; Clostridioides difficile, 48 h): ≤ 0.25 µg/mL
- MIC ([2]; Clostridium perfringens, 48 h): 0.5 µg/mL (≈ 2.92 µM)
- MIC [2, 6]: 0.25 µg/mL (≈ 1.46 µM)

Molecule: CCOC(=O)C1=C[C@@H](OC(CC)CC)[C@H](NC(C)=O)[C@@H](N)C1 [Oseltamivir, oseltamivir, reference compound]
- EC90 [3]: 1.3 nM

Molecule: CC(=O)c1c(C)c2cnc(Nc3ccc(N4CCNCC4)cn3)nc2n(C2CCCC2)c1=O [PD-0332991]
- MEC (minimum effective concentration that significantly crosses vehicle threshold) (HepG2 cells): 0.2 µM
- AC50 (HepG2 cells; Homo sapiens, HepG2, read-out: AC50 (concentration at which 50% maximum effect is observed)): 1930 nM

Molecule: CC(=O)N[C@@H](Cc1c[nH]cn1)C(=O)N1CCC[C@H]1C(=O)N[C@@H](Cc1ccccc1)C(=O)N[C@H](C(=O)N[C@@H](CC(C)C)[C@@H](O)CC(=O)N[C@@H](CC(C)C)C(=O)N[C@@H](Cc1ccccc1)C(N)=O)C(C)C [Positive control, Ac-HPFV-(Sta)-LF-NH2] (Ac-HPFV[Sta]LF-NH2)
- IC50 (renin): 8.4 nM

Molecule: CC(C)c1nc(N(C)S(C)(=O)=O)nc(-c2ccc(F)cc2)c1/C=C/[C@@H](O)C[C@@H](O)CC(=O)O [Rosuvastatin, reference compound]
- In vivo (plasma triglycerides) (plasma triglycerides; 25 mg/kg): Reduction in
- In vivo (plasma triglycerides) (plasma triglycerides; listed as rosuvastatin, 25 mg/kg): marked reduction in plasma triglycerides

Molecule: NC(=O)CC[C@@H]1NC(=O)[C@H](Cc2ccccc2)NC(=O)[C@H](Cc2ccc(O)cc2)NC(=O)[C@@H](N)CSSC[C@@H](C(=O)N2CCC[C@H]2C(=O)N[C@@H](CCCN=C(N)N)C(=O)NCC(N)=O)NC(=O)[C@H](CC(N)=O)NC1=O [Vasopressin]
- Max Response ([4]; AVPR2, Arrestin): 101.99
- EC50 ([4]; AVPR2, Arrestin): 0.767 nM

Molecule: COCCCOc1cc(CC(CC2NC(=O)OC2CC(C(=O)NCC(C)(C)C#N)C(C)C)C(C)C)ccc1OC (stereo not shown) [comparative example]
- Anti-influenza neuraminidase activity (in words) [3]: No activity was observed

Molecule: Angiotensin II (DRVYIHPF; Angiotensin-2; UniProt P01019 25-32, looked up)
- Max Response ([4]; AGTR1, Arrestin): 101.02
- EC50 ([4]; AGTR1, Arrestin): 10.2 nM
